Values quoted from earlier work, collected in patent US8563554B2, “Deuterated pyrazinoisoquinoline compounds” (Concert Pharmaceuticals, Inc., priority 2009, dated 2013).

**Q.** Which “dose excreted in the kidneys” value (share of a dose of praziquantel) does the source give for `O=C(C1CCCCC1)N1CC(=O)N2CCc3ccccc3C2C1` (centres unmarked) [praziquantel, 2-(cyclohexylcarbonyl)-1,2,3,6,7,11b-hexahydro-4H-pyrazino[2,1-a]isoquinolin-4-one] here?
**A.** Its value is “Approximately 80%”.

**Q.** And the “excreted in the form of metabolites” value (share of the renally excreted dose present as metabolites)?
**A.** The value was greater than 99%.
